Values quoted from earlier work, collected in US20010006686A1, “INFLAMMATORY MEDIATION OBTAINED FROM ATRACTYLODES LANCEA” (priority 1999, published 2001).

Target: T1, cyclooxygenase-1 (Ovis aries, UniProt P05979)
T1 sequence (P05979 25-600): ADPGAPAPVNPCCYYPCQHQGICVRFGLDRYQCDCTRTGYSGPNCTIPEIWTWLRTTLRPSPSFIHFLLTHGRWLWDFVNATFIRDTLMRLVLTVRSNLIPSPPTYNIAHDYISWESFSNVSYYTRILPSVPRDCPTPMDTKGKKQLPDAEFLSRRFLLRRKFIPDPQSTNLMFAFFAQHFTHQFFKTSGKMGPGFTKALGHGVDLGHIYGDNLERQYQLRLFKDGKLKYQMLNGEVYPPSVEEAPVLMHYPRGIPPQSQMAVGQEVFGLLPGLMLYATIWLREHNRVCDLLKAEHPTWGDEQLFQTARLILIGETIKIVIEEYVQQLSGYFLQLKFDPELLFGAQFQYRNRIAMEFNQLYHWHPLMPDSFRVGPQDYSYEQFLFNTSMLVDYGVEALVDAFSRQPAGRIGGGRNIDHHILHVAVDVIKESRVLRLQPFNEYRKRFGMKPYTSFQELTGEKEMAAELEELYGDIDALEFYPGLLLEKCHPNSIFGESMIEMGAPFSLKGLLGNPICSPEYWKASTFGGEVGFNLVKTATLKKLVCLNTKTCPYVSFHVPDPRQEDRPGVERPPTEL
Conditions: Resch, et al., J. Nat. Prod., 61, 347-350 (1998)

inhibitory effects on COX-1 activity (in words): significant COX-1 inhibitory effects
Structure (SMILES): CC(C)=CCCC1(C)C=Cc2cc(O)cc(C)c2O1 (stereo not shown) [atractylochromene]
